# Reference: article PMC9839384 (Slas Discovery, 2023)
# How the values were obtained:
# SARS-CoV-2 3CLpro = SARS-CoV-2 3CLpro (Severe acute respiratory syndrome coronavirus 2, UniProt P0DTD1); assay type: cell-based
# [1] = tested on: SARS-CoV-2 3CLpro-HA, RLuc, FLuc in HEK293T cells; assay type: cell-based; conditions: actin as control
# 3CLpro = 3CLpro (Severe acute respiratory syndrome coronavirus 2, UniProt P0DTD1); assay: 3CLpro biochemical inhibition assay; parameters: species or system SARS-CoV-2
# 293T cells = conditions: initial screening
smiles,measurement,setting,value
CCN1CCN(Cc2ccc(NC(=O)Nc3ccc(Oc4cc(NC)ncn4)cc3)cc2C(F)(F)F)CC1 [AST-487],"inhibition against viral proteases, in words",SARS-CoV-2 3CLpro,some selective SARS 3CLpro inhibition but only at the highest concentration tested
CC(C)C[C@H](NC(=O)[C@H](CCc1ccccc1)NC(=O)CN1CCOCC1)C(=O)N[C@@H](Cc1ccccc1)C(=O)N[C@@H](CC(C)C)C(=O)[C@@]1(C)CO1 [Carfilzomib],"inhibition against viral proteases, in words",SARS-CoV-2 3CLpro,inhibited all the proteases tested
same,protein expression by western blot,[1],decrease in all exogenously expressed constructs
O=C(/C=C/c1ccc(Cl)c(Cl)c1)Nc1ccccc1C(=O)O [SR-32229],"potency in the enzymatic assay, in words",3CLpro,low-µM affinity
same,Emax,"3CLpro; Supplementary Fig. 2, panel D",~100 % of tranilast
"COc1ccc(/C=C/C(=O)Nc2ccccc2C(=O)O)cc1OC [Tranilast, (E)-2-(3-(3,4-dimethoxyphenyl)acrylamido)benzoic acid]","inhibition against viral proteases, in words",SARS-CoV-2 3CLpro,SARS 3CLpro specific inhibition
same,"cytotoxicity, in words",293T cells,nontoxic
